Experimental data: patent US20240074990A1 (priority 2022, published 2024)
Where “and” joins values, the source holds several entries; their conditions need not be identical. Equal entries are not always repeated. Entries after “also recorded” stand apart in the source; their conditions may differ. Where two headings read alike, the source gives them in different places.

Legend:
[1] = molecular target: SARS-CoV 3CL protease (Severe acute respiratory syndrome coronavirus, UniProt P0C6X7); assay: biochemical; conditions: for IC50: FRET, three parallel tests; for inhibitory activity on SARS-CoV 3CL proteases (in words): statement in words
[2] = molecular target: SARS-CoV-2 3CL protease (Severe acute respiratory syndrome coronavirus 2, UniProt P0DTD1); assay: In-vitro enzyme activity inhibition test on SARS-CoV-2 3CL protease (fluorescence resonance energy transfer method); assay type: biochemical; conditions: for inhibitory activity on SARS-CoV-2 3CL proteases (in words): statement in words
[3] = 1 μM compound, parallel tests 1, 2, 3, 1 µM
[4] = 5 μM compound, parallel tests 1, 2, 3, 5 µM
[5] = 10 μM compound, parallel tests 1, 2, 3, 10 µM
[6] = 20 μM compound, parallel tests 1, 2, 3, 20 µM
[7] = 30 μM compound, parallel tests 1, 2, 3, 30 µM
[8] = 50 μM compound, parallel tests 1, 2, 3, 50 µM
[9] = 100 μM compound, parallel tests 1, 2, 3, 100 µM
[10] = IC50, SARS-CoV-2 3CL protease, FRET, three parallel tests
[11] = read-out: inhibition percentage, 1 μM compound, parallel tests 1, 2, 3
[12] = read-out: inhibition percentage, 5 μM compound, parallel tests 1, 2, 3
[13] = read-out: inhibition percentage, 10 μM compound, parallel tests 1, 2, 3
[14] = read-out: inhibition percentage, 20 μM compound, parallel tests 1, 2, 3
[15] = read-out: inhibition percentage, 30 μM compound, parallel tests 1, 2, 3
[16] = read-out: inhibition percentage, 50 μM compound, parallel tests 1, 2, 3
[17] = read-out: inhibition percentage, 100 μM compound, parallel tests 1, 2, 3
[18] = 0.1 μM compound, parallel tests 1, 2, 3, 0.1 µM
[19] = 0.5 μM compound, parallel tests 1, 2, 3, 0.5 µM

With `Cc1cc2c(C(C)C)c(O)c(O)c(C=O)c2c(O)c1-c1c(C)cc2c(C(C)C)c(O)c(O)c(C=O)c2c1O` (single isomer, unassigned) [(+)- gossypol, (+)-gossypol] the inhibition percentage [1, 3] was 3.96 and 4.54 and 5.87, the inhibition percentage [1, 4] was 11.58 and 9.88 and 13.43 and the inhibition percentage [1, 5] was 19.12 and 16.53 and 20.66. The inhibition percentage [1, 6] was 22.9 and 26.42 and 30.76, the inhibition percentage [1, 7] was 28.14 and 30.43 and 38.33 and the inhibition percentage [1, 8] was 45.56 and 48.42 and 51.33. For the same compound, the inhibition percentage [1, 9] was 72.33 and 62.28 and 74.43, the IC50 ([1]; IC50, SARS-CoV 3CL protease) was 51.6 ± 1.71 µM and the “inhibitory activity on SARS-CoV 3CL proteases (in words)” value [1] was “all have inhibitory activity”. The inhibition percentage [2, 3] was 2.45 and 3.18 and 3.87, the inhibition percentage [2, 4] was 5.69 and 7.88 and 9.54 and the inhibition percentage [2, 5] was 9.43 and 11.87 and 14.87. The inhibition percentage [2, 6] was 18.73 and 20.90 and 22.44, the inhibition percentage [2, 7] was 25.21 and 28.43 and 29.13 and the inhibition percentage [2, 8] was 36.55 and 40.32 and 38.72. For the same compound, the inhibition percentage [2, 9] was 58.34 and 61.83 and 55.88, the IC50 [2, 10] was 75.2 ± 1.88 µM and the “inhibitory activity on SARS-CoV-2 3CL proteases (in words)” value [2] was “all have inhibitory activity”.

For `Cc1cc2c(C(C)C)c(O)c(O)c(C=O)c2c(O)c1-c1c(C)cc2c(C(C)C)c(O)c(O)c(C=O)c2c1O` [Gossypol, gossypol], the inhibition percentage [1, 3] was 18.54 and 31.50, the inhibition percentage [1, 4] was 35.68 and 44.78 and the inhibition percentage [1, 5] was 51.33 and 64.31. For the same compound, the inhibition percentage [1, 6] was 64.56 and 77.58, the inhibition percentage [1, 7] was 75.44 and 86.42 and the inhibition percentage [1, 8] was 84.12 and 93.41. For the same compound, the inhibition percentage [1, 9] was 90.09 and 98.44, the IC50 ([1]; IC50, SARS-CoV 3CL protease) was 5.43 ± 0.734 µM and the inhibition at 1 µM [1, 11] was 25.6%. For the same compound, the inhibition at 5 µM [1, 12] was 40.4%, the inhibition at 10 µM [1, 13] was 61.2% and the inhibition at 20 µM [1, 14] was 75%. It also gave an inhibition at 30 µM [1, 15] of 85.1%, an inhibition at 50 µM [1, 16] of 92.1% and an inhibition at 100 µM [1, 17] of 96.3%. For the same compound, the “inhibitory activity on SARS-CoV 3CL proteases (in words)” value [1] was “all have inhibitory activity; also recorded: excellent inhibitory activity”, the inhibition percentage [2, 3] was 16.13 and 28.41 and the inhibition percentage [2, 4] was 33.24 and 41.67. For the same compound, the inhibition percentage [2, 5] was 49.17 and 61.32, the inhibition percentage [2, 6] was 61.34 and 74.52 and the inhibition percentage [2, 7] was 72.15 and 83.12. For the same compound, the inhibition percentage [2, 8] was 81.17 and 90.16, the inhibition percentage [2, 9] was 87.84 and 95.27 and the IC50 [2, 10] was 6.91 ± 0.839 µM. The inhibition at 1 µM [2, 11] was 22.9%, the inhibition at 5 µM [2, 12] was 36.2% and the inhibition at 10 µM [2, 13] was 57.4%. It also gave an inhibition at 20 µM [2, 14] of 71.2%, an inhibition at 30 µM [2, 15] of 83.7% and an inhibition at 50 µM [2, 16] of 88.4%. The inhibition at 100 µM [2, 17] was 93.2% and the “inhibitory activity on SARS-CoV-2 3CL proteases (in words)” value [2] was “all have inhibitory activity; also recorded: excellent inhibitory activity”.

`Cc1cc2c(C(C)C)c(O)c(O)c(C=O)c2c(O)c1-c1c(C)cc2c(C(C)C)c(O)c(O)c(C=O)c2c1O` (single isomer, unassigned) [(−)- gossypol, (−)-gossypol] was tested, and the inhibition percentage [1, 18] was 13.11 and 10.83 and 15.87, the inhibition percentage [1, 19] was 24.54 and 21.88 and 30.26 and the inhibition percentage [1, 3] was 43.78 and 40.92 and 50.01. For the same compound, the inhibition percentage [1, 4] was 64.32 and 58.9 and 67.22, the inhibition percentage [1, 5] was 77.32 and 72.54 and 73.76 and the inhibition percentage [1, 6] was 86.43 and 78.13 and 85.43. The inhibition percentage [1, 7] was 91.83 and 87.54 and 90.32, the inhibition percentage [1, 8] was 98.42 and 92.10 and 97.54 and the inhibition percentage [1, 9] was 99.74 and 98.12 and 99.53. For the same compound, the IC50 ([1]; IC50, SARS-CoV 3CL protease) was 1.79 µM and < 10 µM, the “inhibitory activity on SARS-CoV 3CL proteases (in words)” value [1] was “all have inhibitory activity; also recorded: excellent inhibitory activity” and the inhibition percentage [2, 18] was 12.83 and 10.83 and 14.77. For the same compound, the inhibition percentage [2, 19] was 20.99 and 19.88 and 22.88, the inhibition percentage [2, 3] was 31.43 and 32.87 and 34.65 and the inhibition percentage [2, 4] was 52.19 and 48.98 and 56.91. The inhibition percentage [2, 5] was 71.90 and 65.43 and 69.78, the inhibition percentage [2, 6] was 82.54 and 75.44 and 83.47 and the inhibition percentage [2, 7] was 90.45 and 83.21 and 91.45. The inhibition percentage [2, 8] was 96.88 and 90.68 and 95.87, the inhibition percentage [2, 9] was 99.23 and 96.73 and 98.44 and the IC50 ([2]; IC50) was 2.97 ± 0.473 µM. The IC50 [2, 10] was less than 10 µM and the “inhibitory activity on SARS-CoV-2 3CL proteases (in words)” value [2] was “all have inhibitory activity; also recorded: excellent inhibitory activity”.

In the case of `CC(=O)O.Cc1cc2c(C(C)C)c(O)c(O)c(C=O)c2c(O)c1-c1c(C)cc2c(C(C)C)c(O)c(O)c(C=O)c2c1O` [Acetate gossypol, acetate gossypol], the inhibition percentage [1, 3] is reported as 26.61 and 19.97 and 32.84, the inhibition percentage [1, 4] is reported as 41.15 and 36.26 and 45.91 and the inhibition percentage [1, 5] is reported as 62.48 and 52.56 and 65.81. For the same compound, the inhibition percentage [1, 6] was 75.14 and 65.81 and 78.97, the inhibition percentage [1, 7] was 86.61 and 76.15 and 87.62 and the inhibition percentage [1, 8] was 93.52 and 85.63 and 94.62. The inhibition percentage [1, 9] was 97.81 and 91.32 and 98.71, the IC50 ([1]; SARS-CoV 3CL protease, read-out: IC50) was 5.16 ± 0.712 µM and the “inhibitory activity on SARS-CoV 3CL proteases (in words)” value [1] was “all have inhibitory activity; also recorded: excellent inhibitory activity”. For the same compound, the inhibition percentage [2, 3] was 24.71 and 17.94 and 30.17, the inhibition percentage [2, 4] was 37.81 and 34.61 and 43.51 and the inhibition percentage [2, 5] was 59.14 and 50.87 and 63.21. For the same compound, the inhibition percentage [2, 6] was 72.87 and 63.41 and 76.32, the inhibition percentage [2, 7] was 85.31 and 73.94 and 84.81 and the inhibition percentage [2, 8] was 90.17 and 82.76 and 91.83. The inhibition percentage [2, 9] was 95.41 and 89.67 and 97.16, the IC50 ([2]; SARS-CoV-2 3CL protease, FRET, three parallel tests, read-out: IC50) was 6.09 ± 0.784 µM and the “inhibitory activity on SARS-CoV-2 3CL proteases (in words)” value [2] was “all have inhibitory activity; also recorded: excellent inhibitory activity”.
